Drawing on ChEMBL document CHEMBL1132001, “Generation of an Ugi library of phosphate mimic-containing compounds and identification of novel dual specific phosphatase inhibitors” (Bioorg Med Chem Lett, 1999), this text covers Activity for eleven molecules.

For one experiment, the species on record is Homo sapiens. The experiment in a line: Inhibition of dual specificity Cell division cycle 25.
The nature of experiment [1]: Compound was evaluated for its activity against PTP1B (a tyrosine phosphatase).
The target in experiment [2] is Dual specificity protein phosphatase 3 (Homo sapiens) (UniProt P51452). The experiment can be described thus: Compound was evaluated for its activity against VHR.
Sequence of Dual specificity protein phosphatase 3 (Homo sapiens) (P51452 whole entry, looked up): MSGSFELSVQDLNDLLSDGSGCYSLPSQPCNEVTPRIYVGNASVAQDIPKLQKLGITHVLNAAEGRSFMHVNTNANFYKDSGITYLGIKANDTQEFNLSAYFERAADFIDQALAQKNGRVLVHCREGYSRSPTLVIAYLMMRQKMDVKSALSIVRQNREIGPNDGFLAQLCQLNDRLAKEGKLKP

In the case of `Cc1ccc(S(=O)(=O)CNC(=O)C(c2ccc(OCP(=O)(O)O)cc2)N(CCc2c[nH]c3ccccc23)C(=O)c2cc(Br)cc(Br)c2O)cc1` (centres undefined), the Activity in the experiment filed under Homo sapiens is 10 µM; in experiment [1], 95 µM; in experiment [2], > 120 µM.
`O=C(NC(Cc1ccc(O)cc1)C(=O)N(CCc1c[nH]c2ccccc12)C(C(=O)NCCN1CCOCC1)c1ccc(OCP(=O)(O)O)cc1)OCC1c2ccccc2-c2ccccc21` (centres undefined): the results for the Activity (in the experiment listed under Homo sapiens; in experiment [1]; in experiment [2]) were 8 µM, 16 µM and 6.1 µM, respectively.
The like results for `CC(C)=CCCC(C)C(C(=O)NC1CCCCC1)N(CCc1c[nH]c2ccccc12)C(=O)c1ccc(CP(=O)(O)O)cc1` (centres undefined) were, in that order, 23 µM, 61 µM and 17 µM.
For `O=C(O)C(Oc1ccc(C(C(=O)NC2CCCCC2)N(Cc2ccc3c(c2)OCO3)C(=O)c2ccc(CP(=O)(O)O)cc2)cc1)C(=O)O` (centres undefined), the Activity in the experiment filed under Homo sapiens was found to be 3 µM; in experiment [1], 107 µM; in experiment [2] it was 11 µM.
The like results for `O=C(NC1CCCCC1)C(c1ccnc2ccccc12)N(CCc1c[nH]c2ccccc12)C(=O)c1ccc(CP(=O)(O)O)cc1` (centres undefined) were, in that order, 16 µM, > 160 µM and 87 µM.
In the same order, the values of `O=C(O)C(Oc1ccc(C(=O)N(Cc2ccc3c(c2)OCO3)C(C(=O)NC2CCCCC2)c2ccc(OC(C(=O)O)C(=O)O)cc2)cc1)C(=O)O` (centres undefined) are 3 µM, 89 µM and 9 µM.
On to `CC(C)/C=C\CC(C)C(C(=O)NCC(=O)O)N(CCc1c[nH]c2ccccc12)C(=O)c1cc(Br)cc(Br)c1O` (centres undefined), for which the Activity in the experiment listed under Homo sapiens is 15 µM.
As to `O=C(O)C(Oc1ccc(C(=O)N(Cc2ccc3c(c2)OCO3)C(C(=O)NC2CCCCC2)c2ccc(OCP(=O)(O)O)cc2)cc1)C(=O)O` (centres undefined), the Activity in the experiment filed under Homo sapiens was 0.7 µM; in experiment [1] it was 82 µM; in experiment [2], 5 µM.
In the same order, the values of `O=C(O)CNC(=O)C(c1nccs1)N(Cc1ccc2c(c1)OCO2)C(=O)c1ccc(CP(=O)(O)O)cc1` (centres undefined) are 35 µM, > 96 µM and > 9 µM.
Molecule `CC(C)=CCCC(C)C(C(=O)NC1CCCCC1)N(CCc1c[nH]c2ccccc12)C(=O)c1ccc(C(F)(F)P(=O)(O)O)cc1` (centres undefined) yielded an Activity in the experiment filed under Homo sapiens of 27 µM.
In the case of `CC(C)=CCCC(C)C(C(=O)NC1CCCCC1)N(Cc1ccc2c(c1)OCO2)C(=O)c1ccc(CP(=O)(O)O)cc1` (centres undefined), the Activity in the experiment filed under Homo sapiens is 23 µM; in experiment [1] it was 73 µM; in experiment [2] it was 19 µM.
